According to patent US20070093457A1, “Compositions for treatment of cancer and inflammation with curcumin and at least one nsaid” (priority 2004, published 2007):

Tests used:
[1] = test system: RASFs; test: RASF cell viability assay (XTT); format: cell-based; conditions: Homo sapiens, 72 hours, read-out: IC50 cell growth
Experimental: RASFs that had been prepared from small pieces (2 mm in diameter) of human synovial tissue were grown after trypsinization in monolayers in tissue culture flasks, as known to a person skilled in the art. The synovial tissue specimens were obtained during total knee replacement surgery in patients diagnosed as having rheumatoid arthritis according to the revised criteria of the American College of Rheumatology. Synovial tissue was digested for 2 hours with 0.2% (weight/volume) bacterial collagenase and then suspended in Dulbecco's modified Eagle's medium (DMEM, Biological Industries, Israel) with 10% (volume/volume) fetal calf serum (FCS), 100 units/ml penicillin, and […] streptomycin. The cells were incubated at 37° C. in 5% CO2 for 3-5 days, after which the non-adherent cells were removed. Fibroblast-like adherent cells from the first or second passage were used as RASFs.
RASFs (1.5×10^4/well) were incubated at 37° C. in 96-well plastic plates with test drugs in DMEM containing 10% FCS in an atmosphere of 5% CO2 (fmal dimethyl sulfoxide concentration 0.1%). After 72 hours, cell viability was assessed by the ability of metabolically active cells to reduce tetrazolium salt (XTT) to colored formazan compounds. The absorbance of the samples was measured with a specific enzyme-linked immunoassay (ELISA) reader (wavelength 450 nm; reference wavelength 630 nm). […]

[2] = test system: COX-2; conditions: HT-29; curcumin 10-15 μM
Experimental: PGE2 concentration in the medium, as released by the cells, was determined by a commercially available PGE2-specific enzyme-linked immunoassay (R&D Biosystems, Abingdon, UK) according to the manufacturer's protocol.

[3] = test system: RASF cells; test: RASF apoptosis, flow-cytometric analysis
[4] = test system: COX-2 mRNA; test: Reverse transcriptase PCR of COX-2 mRNA; format: cell-based, human; conditions: HT-29; selected concentrations
Experimental: HT-29 cells were treated with the selected drugs as indicated. The mRNA was extracted, and equal amounts were transcribed to cDNA from a kit (Promega, CITY, USA). The cDNA was taken from samples at various times and used as the DNA templates for PCR. Primers used for COX-2 were: […]
GAPDH was used to ensure equal loading. […] were used as the template and […] of each primer was used for each cDNA sample. The samples went through 30 rounds of PCR. They were separated on 1% agarose gel and visualized by ethidium bromide. 7. Measurement of PGE2 Concentration

Row | SMILES | IC50 [1] [µM] | effect on PGE2 synthesis [2] | cell apoptosis (cells with sub-diploid DNA content) ([3]; curcumin 20 μM) [%] | COX-2 mRNA expression [4] | cell apoptosis (cells with sub-diploid DNA content) ([3]; celecoxib 20-40 μM)
1 | COc1cc(/C=C/C(=O)CC(=O)/C=C/c2ccc(O)c(OC)c2)ccc1O [curcumin] | 35 | dose-dependent effect | 4.7 | no effect | 
2 | Cc1ccc(-c2cc(C(F)(F)F)nn2-c2ccc(S(N)(=O)=O)cc2)cc1 [celecoxib, reference compound] | 40 |  |  |  | 4.8-19.2%
